Patent US10059688B2, “Protein tyrosine kinase modulators and methods of use” (BETTA PHARMACEUTICALS CO., LTD., priority 2013, dated 2018)
Like-named read-outs stand apart in the source and are kept apart here.

Experiments:
[1] = target: EGFR (ErbB1) T790M L858R (Homo sapiens (Human), UniProt P00533, L858R/T790M)
Protocol: (§1) 2.5 μL—4× Test Compound or 100 nL 100× plus 2.4 μL kinase buffer;
5 μL—2× Peptide/Kinase Mixture;
5 μL—Development Reagent Solution;
(§2) 60-minute Development Reaction incubation at room temperature;
(§3) Read on fluorescence plate reader and analyze the data.

[2] = target: EGFR (ErbB1) T790M (Homo sapiens (Human), UniProt P00533, T790M); test: Kinase assay (IC50), fluorescence peptide assay; assay type: biochemical; details: 10 pt curve, 1 μM top concentration, Km ATP
Protocol: as §1
5 μL—2× Peptide/Kinase Mixture;
5 μL—Development Reagent Solution;
as §2, §3

[3] = target: EGFR (ErbB1) L858R (Homo sapiens (Human), UniProt P00533, L858R); test: Kinase assay (IC50), fluorescence peptide assay; details: read-out: IC50 EGFR (ErbB1) L858R; 10 pt curve, 1 μM top concentration, Km ATP
[4] = target: EGFR (ErbB1) (Homo sapiens (Human), UniProt P00533); test: Kinase assay (IC50), fluorescence peptide assay; assay type: biochemical; details: EGFR WT; 10 pt curve, 10 μM top concentration, Km ATP
Protocol: as §1
5 μL—2× Peptide/Kinase Mixture;
5 μL—Development Reagent Solution;
as §2, §3

[5] = system: HCC827 (EGFR Del) NSCLC cells; test: Cell proliferation assay (MTS cell viability); assay type: cell-based; details: for IC50: HCC827 cells, 3 days of exposure, MTS; for GI50: HCC827, one set of studies, read-out: GI50, proliferation of HCC827 cells expressing EGFR Del
Protocol: (§4) Effects of test compounds on in vitro proliferation were measured by MTS cell viability assay.
(§5) Prepare test compounds in each well with a final medium volume of 200 μl;
Incubate for 3 days of exposure;
(§6) Prepare reagents following the instructions in the Cell Proliferation Assay kit (Promega);
(§7) Change to serum-free medium with a final volume of 100 l/well. Prepare a set of wells with medium only for background subtraction;
(§8) Add 20 μl MTS solution containing PMS to each well (final concentration of MTS will be 0.33 mg/ml);
(§9) Incubate 1 to 4 hours at 37° C. in a humidified, 5% CO2 atmosphere.
(§10) Record absorbance at 490 nm using VICTOR™ X5 plate reader (PerkinElmer).
(§11) All experimental points were set up in three wells and all experiments were repeated at least three times.

[6] = system: A549 (EGFR WT) NSCLC cells; test: Cell proliferation assay (MTS cell viability); assay type: cell-based; details: for IC50: A549 cells, 3 days of exposure, MTS; for GI50: A549
Protocol: as §4
A549 cells were maintained in Ham's F12K medium (Gibco) supplemented with 10% FBS, 100 units/mL penicillin, 100 units/mL streptomycin, and 2 mM glutamine.
as §5
Incubate for 3 days of exposure;
as §6, §7, §8, §9, §10, §11

[7] = system: H1975 (EGFR L858R/T790M) NSCLC cells; test: Cell proliferation assay (MTS cell viability); assay type: cell-based; details: for IC50: H1975 cells, 3 days of exposure, MTS; for GI50: NCI-H1975, one set of studies, read-out: GI50, proliferation of H1975 cells expressing EGFR-L858R/T790M
[8] = target: EGFR (T790M, L858R) (h) (Homo sapiens (Human), UniProt P00533, L858R/T790M); test: Kinase assay, single dose inhibition (Millipore, 33P-ATP filter binding); assay type: biochemical; details: 0.1 μM test compound, 10 μM ATP; remaining activity relative to DMSO control = 100%
Protocol: (§12) Assay conditions included 10 μM ATP and 100 nM test compounds.
(§13) All reactions are initiated by the addition of the MgATP mix. After incubation for 40 minutes at room temperature, the reaction is stopped by the addition of 3% phosphoric acid solution. 10 μL of the reaction is then spotted onto a P30 filtermat and washed three times for 5 minutes in 75 mM phosphoric acid and once in methanol prior to drying and scintillation counting. This assay is performed by Millipore. The experiment is carried out in duplicate. The value for the control sample (DMSO) was set to 100%, and the values for the compound-treated samples were expressed as activity relative to the control sample.

[9] = system: activated and resistant T790M forms of EGFR; EGFR WT; test: In vitro cellular assays, statements across cell lines; assay type: cell-based; details: result in words
Protocol: as §4

[10] = target: EGFR (L858R) (h) (Homo sapiens (Human), UniProt P00533, L858R); test: Kinase assay, single dose inhibition (Millipore, 33P-ATP filter binding); assay type: biochemical; details: 0.1 μM test compound, 10 μM ATP; remaining activity relative to DMSO control = 100%
Protocol: as §12, §13

[11] = system: A431 (EGFR WT) cells; test: Cell proliferation assay (MTS cell viability); assay type: cell-based; details: 3 days of exposure
Protocol: as §4
A431 cells were maintained in DMEM (Gibco) supplemented with 10% FBS, 100 units/mL penicillin, 100 units/mL streptomycin, and 2 mM glutamine.
as §5
Incubate for 3 days of exposure;
as §6, §7, §8, §9, §10, §11

[12] = target: EGFR (T790M) (h) (Homo sapiens (Human), UniProt P00533, T790M); test: Kinase assay, single dose inhibition (Millipore, 33P-ATP filter binding); assay type: biochemical; details: 0.1 μM test compound, 10 μM ATP; remaining activity relative to DMSO control = 100%
Protocol: as §12, §13

[13] = target: ALK (Homo sapiens (Human), UniProt Q9UM73); test: Kinase assay (IC50), fluorescence peptide assay; assay type: biochemical; details: 10 pt curve, 1 μM top concentration, Km ATP
Sequence of ALK (Q9UM73 19-1620): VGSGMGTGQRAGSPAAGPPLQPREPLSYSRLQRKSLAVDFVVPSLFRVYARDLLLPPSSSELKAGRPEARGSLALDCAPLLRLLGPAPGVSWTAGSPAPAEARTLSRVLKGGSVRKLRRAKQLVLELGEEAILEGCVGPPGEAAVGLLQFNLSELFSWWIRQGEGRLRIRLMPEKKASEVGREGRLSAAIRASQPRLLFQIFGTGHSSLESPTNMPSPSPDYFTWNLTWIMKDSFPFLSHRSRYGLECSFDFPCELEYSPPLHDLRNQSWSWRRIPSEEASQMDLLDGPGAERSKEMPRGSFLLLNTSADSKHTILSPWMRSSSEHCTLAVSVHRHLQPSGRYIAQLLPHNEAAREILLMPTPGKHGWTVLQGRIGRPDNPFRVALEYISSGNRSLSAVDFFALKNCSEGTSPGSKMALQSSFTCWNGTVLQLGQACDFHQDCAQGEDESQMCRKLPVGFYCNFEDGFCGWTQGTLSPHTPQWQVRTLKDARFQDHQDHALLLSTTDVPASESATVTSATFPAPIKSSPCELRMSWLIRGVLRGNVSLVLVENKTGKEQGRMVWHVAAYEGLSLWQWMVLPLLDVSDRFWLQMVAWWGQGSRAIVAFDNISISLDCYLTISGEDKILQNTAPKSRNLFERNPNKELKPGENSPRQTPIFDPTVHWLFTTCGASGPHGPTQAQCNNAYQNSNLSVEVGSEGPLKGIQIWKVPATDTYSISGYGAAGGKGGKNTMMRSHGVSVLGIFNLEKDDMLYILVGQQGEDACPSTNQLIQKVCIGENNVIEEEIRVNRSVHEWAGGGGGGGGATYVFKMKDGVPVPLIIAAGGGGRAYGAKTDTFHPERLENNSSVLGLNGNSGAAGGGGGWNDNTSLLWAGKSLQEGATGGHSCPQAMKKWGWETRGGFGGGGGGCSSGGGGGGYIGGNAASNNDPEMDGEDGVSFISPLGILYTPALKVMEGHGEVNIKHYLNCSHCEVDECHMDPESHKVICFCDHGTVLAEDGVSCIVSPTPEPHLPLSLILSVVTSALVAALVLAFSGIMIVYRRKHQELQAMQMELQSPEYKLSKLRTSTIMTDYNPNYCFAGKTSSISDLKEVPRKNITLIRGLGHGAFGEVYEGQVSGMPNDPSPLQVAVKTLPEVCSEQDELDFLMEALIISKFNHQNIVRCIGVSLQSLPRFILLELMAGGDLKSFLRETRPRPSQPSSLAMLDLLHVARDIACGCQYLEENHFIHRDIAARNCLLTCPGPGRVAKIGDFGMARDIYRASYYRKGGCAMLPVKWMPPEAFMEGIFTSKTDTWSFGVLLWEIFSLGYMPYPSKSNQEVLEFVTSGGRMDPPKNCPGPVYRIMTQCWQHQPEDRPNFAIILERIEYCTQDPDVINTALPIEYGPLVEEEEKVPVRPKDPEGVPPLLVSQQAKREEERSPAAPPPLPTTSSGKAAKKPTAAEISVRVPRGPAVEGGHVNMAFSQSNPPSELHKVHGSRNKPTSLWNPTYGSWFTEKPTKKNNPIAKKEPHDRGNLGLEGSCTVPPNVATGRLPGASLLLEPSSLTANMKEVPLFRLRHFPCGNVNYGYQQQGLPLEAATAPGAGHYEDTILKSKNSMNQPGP
Protocol: as §1
5 μL—2× Peptide/Kinase Mixture;
5 μL—Development Reagent Solution;
as §2, §3

[14] = target: EGFR (h) (Homo sapiens (Human), UniProt P00533); test: Kinase assay, single dose inhibition (Millipore, 33P-ATP filter binding); assay type: biochemical; details: 0.1 μM test compound, 10 μM ATP; remaining activity relative to DMSO control = 100%
[15] = target: ALK (h) (Homo sapiens (Human), UniProt Q9UM73); test: as above; assay type: biochemical; details: 0.1 μM test compound, 10 μM ATP; remaining activity relative to DMSO control = 100%
Sequence of ALK (h) (Q9UM73 19-1620): as above
Protocol: as §12, §13

[16] = system: Ba/F3 cells harboring EGFR T790M in conjunction with different exon 19 deletion mutations; details: read-out: IC50 required to inhibit the growth of Ba/F3 cells harboring EGFR T790M; cited from earlier work
[17] = Phase I trial; cited from earlier work
[18] = system: patients with EGFR mutations; details: six prospective trials; cited from earlier work
[19] = system: lung cancer patients; details: all lung cancer patients, not selected for EGFR mutation; cited from earlier work
[20] = read-out: IC50 EGFR (ErbB1) T790M L858R, 10 pt curve, 1 μM top concentration, Km ATP

Molecule	IC50 ([5]; Homo sapiens, 72 h) [nM]	IC50 ([6]; Homo sapiens, 72 h) [nM]	IC50 ([7]; Homo sapiens, NCI-H1975, 72 h) [nM]	Activity (control) % EGFR (T790M, L858R) (h) [8] [%]	activity against both activated and resistant T790M forms of EGFR in vitro cellular assays [9]	Activity (control) % EGFR (L858R) (h) [10] [%]	IC50 ([11]; Homo sapiens, A-431, 72 h) [nM]	Activity (control) % EGFR (T790M) (h) [12] [%]	Activity (control) % EGFR (h) [14] [%]	Activity (control) % ALK (h) [15] [%]	also measured
C#Cc1cccc(Nc2ncnc3cc4c(cc23)OCCOCCOCCO4)c1 [Icotinib, reference compound]											IC50 ([1]; read-out: IC50, resistant mutant EGFR L858R/T790M): ≥ 16.6 nM; IC50 [1, 20]: > 1000 nM; IC50 [2]: > 1000 nM; IC50 [3]: 2.02 nM; IC50 [4]: 1.23 nM
C=CC(=O)Nc1ccc(OC)c(Nc2ncc(Cl)c(Nc3ccccc3C(=O)C(=O)N(C)C)n2)c1 [Example 67, N-(3-(5-chloro-4-(2-(2-(dimethylamino)-2-oxoactyl)phenylamino)pyrimidin-2-ylamino)-4-methoxyphenyl)acrylamide]	20	1580	20	9	potent activity	85	110	50	105	13	GI50 ([5]; Homo sapiens): 20 nM; IC50 [1, 20]: 15.4 nM; GI50 ([6]; Homo sapiens): > 1500 nM; GI50 ([7]; Homo sapiens): 20 nM; IC50 [2]: 18.9 nM; IC50 [3]: 500 nM; IC50 [4]: 273 nM; IC50 [13]: 17.3 nM
C=C(CN1CCOCC1)C(=O)Nc1cccc(Nc2ncc(Cl)c(Nc3ccccc3C(=O)C(=O)N(C)C)n2)c1 [Example 112, N-(3-(5-chloro-4-(2-(2-(dimethylamino)-2-oxoacetyl)phenylamino)pyrimidin-2-ylamino)phenyl)-2-(morpholinomethyl)acrylamide]	30	40	10	1	potent activity	66	100	14	85	21	
COc1cc(Nc2ncc(Cl)c(Nc3ccccc3C(=O)C(=O)N(C)C)n2)ccc1N1CCC(N(C)C)CC1 [Example 118, 2-(2-(5-chloro-2-(4-(4-(dimethylamino)piperidin-1-yl)-3-methoxyphenylamino)pyrimidin-4-ylamino)phenyl)-N,N-dimethyl-2-oxoacetamide]	20	1890	10	2	potent activity	29	10	18	82	3	GI50 ([5]; Homo sapiens): 20 nM; IC50 [1, 20]: 5.13 nM; GI50 ([6]; Homo sapiens): > 1500 nM; GI50 ([7]; Homo sapiens): 10 nM; IC50 [2]: 4.92 nM; IC50 [3]: 158 nM; IC50 [4]: 77.6 nM; IC50 [13]: 10.8 nM
C=CC(=O)Nc1cc(Nc2ncc(Cl)c(Nc3ccccc3C(=O)C(=O)N(C)C)n2)ccc1OC [Example 65, N-(5-(5-chloro-4-(2-(2-(dimethylamino)-2-oxoacetyl)phenylamino)pyrimidin-2-ylamino)-2-methoxyphenyl)acrylamide]	120	> 3000	20	25	potent activity	102		80	118	19	
C=CC(=O)Nc1cc(Nc2ncc(Cl)c(Nc3ccccc3C(=O)C(=O)N(C)C)n2)c(OC)cc1F [Example 66, N-(5-(5-chloro-4-(2-(2-(dimethylamino)-2-oxoacetyl)phenylamino)pyrimidin-2-ylamino)-2-fluoro-4-methoxyphenyl)acrylamide]	120	> 3000	50	24	potent activity	104		66	107	35	
CCOc1cc2ncc(C#N)c(Nc3ccc(OCc4ccccn4)c(Cl)c3)c2cc1NC(=O)/C=C/CN(C)C [HKI-272]											IC50 [16]: 200 to 800 nM; Cmax [17]: ~200 nM
N-(5-(5-chloro-4-(2-(2-(dimethylamino)-2-oxoactyl)phenylamino)pyrimidin-2-ylamino)-4-methoxy-2-(4-methylpiperazin-1-yl)phenyl)acrylamide [Example 74]					potent activity			62	110	9	IC50 [5]: 30 nM; IC50 [6]: 620 nM; IC50 [7]: 50 nM; IC50 [11]: 50 nM
C#Cc1cccc(Nc2ncnc3cc(OCCOC)c(OCCOC)cc23)c1 [erlotinib]											radiographic response rates [18]: 60-82%; likelihood of tumor shrinkage (response rate) [19]: 8-10%; median time to tumor progression [19]: approximately 2 months
COc1cc(N2CCN(C(C)=O)CC2)ccc1Nc1ncc(Cl)c(Nc2ccccc2C(=O)C(=O)N(C)C)n1 [Example 53, 2-(2-(2-(4-(4-acetylpiperazin-1-yl)-2-methoxyphenylamino)-5-chloropyrimidin-4-ylamino)phenyl)-N,N-dimethyl-2-oxoacetamide]	540	> 3000	210	4		60	50	21	109		
COc1cc(Nc2ncc(Cl)c(Nc3ccccc3C(=O)C(=O)N(C)C)n2)ccc1N1CCN(C)CC1 [Example 61, 2-(2-(5-chloro-2-(3-methoxy-4-(4-methylpiperazin-1-yl)phenylamino)pyrimidin-4-ylamino)phenyl)-N,N-dimethyl-2-oxoacetamide]				13		70		54	101	5	IC50 [13]: 12.2 nM
